PubChem BioAssay AID328 (DTP/NCI, 2004)
“And” between values parts separate entries of the source, which are not always exact repeats. Equal entries are not always repeated. Inconclusive results and toxic doses are left out.

Tested on: BDF1 mice, P388 leukemia ip, median survival T/C
Assay: NCI In Vivo Anticancer Drug Screen. Data for tumor model P388 Leukemia (intraperitoneal) in B6D2F1 (BDF1) mice
Conditions: endpoint: median survival time, higher = longer survival
Procedure, shortened: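 Read-out is survival of treated animals expressed relative to the vehicle group, as a T/C ratio.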

[1] = dose: 100.0 mg/kg/injection, schedule: Q01DX009 (ip), vehicle: Klucel (hydroxypropylcellulose) (HPC)
[2] = dose: 200.0 mg/kg/injection, schedule: Q01DX009 (ip), vehicle: Klucel (hydroxypropylcellulose) (HPC)
[3] = dose: 100.0 mg/kg/injection, schedule: Q01DX001 (ip), vehicle: saline with Tween-80
[4] = dose: 25.0 mg/kg/injection, schedule: Q01DX009 (ip), vehicle: saline
[5] = dose: 50.0 mg/kg/injection, schedule: Q01DX009 (ip), vehicle: saline
[6] = dose: 100.0 mg/kg/injection, schedule: Q01DX009 (ip), vehicle: saline
[7] = dose: 100.0 mg/kg/injection, schedule: Q04DX003 (ip), vehicle: saline with Tween-80
[8] = dose: 200.0 mg/kg/injection, schedule: Q04DX003 (ip), vehicle: saline with Tween-80
[9] = dose: 400.0 mg/kg/injection, schedule: Q04DX003 (ip), vehicle: saline with Tween-80
[10] = dose: 50.0 mg/kg/injection, schedule: Q01DX001 (ip), vehicle: saline
[11] = dose: 100.0 mg/kg/injection, schedule: Q01DX001 (ip), vehicle: saline
[12] = dose: 200.0 mg/kg/injection, schedule: Q01DX001 (ip), vehicle: saline
[13] = dose: 25.0 mg/kg/injection, schedule: Q01DX009 (ip), vehicle: saline with Tween-80
[14] = dose: 100.0 mg/kg/injection, schedule: Q04DX003 (ip), vehicle: Klucel (hydroxypropylcellulose) (HPC)
[15] = dose: 200.0 mg/kg/injection, schedule: Q04DX003 (ip), vehicle: Klucel (hydroxypropylcellulose) (HPC)
[16] = dose: 400.0 mg/kg/injection, schedule: Q04DX003 (ip), vehicle: Klucel (hydroxypropylcellulose) (HPC)
[17] = dose: 50.0 mg/kg/injection, schedule: Q01DX009 (ip), vehicle: saline with Tween-80
[18] = dose: 100.0 mg/kg/injection, schedule: Q01DX009 (ip), vehicle: saline with Tween-80
[19] = dose: 200.0 mg/kg/injection, schedule: Q01DX009 (ip), vehicle: saline with Tween-80

With `CC1(C)NC(=O)N(CN2CCN(CN3C(=O)NC(C)(C)C3=O)CC2)C1=O` the T/C (dose: 100.0 mg/kg/injection, schedule: Q04DX003 (ip), vehicle: saline sonified) was 107 % of control, the T/C (dose: 200.0 mg/kg/injection, schedule: Q04DX003 (ip), vehicle: saline sonified) was 115 % of control and the T/C (dose: 400.0 mg/kg/injection, schedule: Q04DX003 (ip), vehicle: saline sonified) was 115 % of control.
With `Nc1ncc([N+](=O)[O-])cn1` the T/C [1] was 95 % of control and the T/C [2] was 90 % of control.
`CCCC#CC#N` was tested, and the T/C (dose: 25.0 mg/kg/injection, schedule: Q01DX009 (ip), vehicle: olive oil, sesame oil, peanut oil) was 104 % of control and the T/C (dose: 50.0 mg/kg/injection, schedule: Q01DX009 (ip), vehicle: olive oil, sesame oil, peanut oil) was 91 % of control.
In the case of `CC[C@@H]1C[C@H]2CC3c4[nH]c5ccc(O)cc5c4CCN(C2)C31`, the T/C (dose: 25.0 mg/kg/injection, schedule: Q01DX001 (ip), vehicle: saline with Tween-80) is reported as 106 % of control, the T/C (dose: 50.0 mg/kg/injection, schedule: Q01DX001 (ip), vehicle: saline with Tween-80) is reported as 104 % of control and the T/C [3] is reported as 108 % of control.
`O=[N+]([O-])c1ccc(N2CCN(Cc3ccccc3)CC2)c2c1no[n+]2[O-]` was tested, and the T/C (dose: 75.0 mg/kg/injection, schedule: Q04DX003 (ip), vehicle: saline with Tween-80) was 101 % of control and the T/C (dose: 300.0 mg/kg/injection, schedule: Q04DX003 (ip), vehicle: saline with Tween-80) was 121 % of control.
For `O=[N+]([O-])c1cccc(/C=C/C=C/c2ccc(S(=O)(=O)F)cc2Cl)c1`, the T/C (dose: 100.0 mg/kg/injection, schedule: Q01DX001 (ip), vehicle: Klucel (hydroxypropylcellulose) (HPC)) was 100 % of control, the T/C (dose: 200.0 mg/kg/injection, schedule: Q01DX001 (ip), vehicle: Klucel (hydroxypropylcellulose) (HPC)) was 95 % of control and the T/C (dose: 400.0 mg/kg/injection, schedule: Q01DX001 (ip), vehicle: Klucel (hydroxypropylcellulose) (HPC)) was 95 % of control.
For `O=C(O)C(CSC(c1ccccc1)(c1ccccc1)c1ccccc1)N=Cc1cccs1` (stereo not given), the T/C (dose: 2.1 mg/kg/injection, schedule: Q01DX009 (ip), vehicle: saline) was 118 % of control, the T/C (dose: 3.1 mg/kg/injection, schedule: Q01DX009 (ip), vehicle: saline) was 109 % of control and the T/C (dose: 7.2 mg/kg/injection, schedule: Q01DX009 (ip), vehicle: saline) was 175 % of control. For the same molecule, the T/C (dose: 11.0 mg/kg/injection, schedule: Q01DX009 (ip), vehicle: saline) was 189 % of control, the T/C (dose: 16.0 mg/kg/injection, schedule: Q01DX009 (ip), vehicle: saline) was 163 % of control and the T/C [4] was 185 % of control. For the same molecule, the T/C [5] was 200 % of control, the T/C (dose: 66.0 mg/kg/injection, schedule: Q01DX009 (ip), vehicle: saline) was 272 % of control and 177 % of control and the T/C [6] was 250 % of control and 90 % of control and 218 % of control. The T/C (dose: 150.0 mg/kg/injection, schedule: Q01DX009 (ip), vehicle: saline) was 100 % of control.
With `CSC1C(=O)Nc2ccc(Cl)cc21` (stereo not given) the T/C [7] was 97 % of control and 108 % of control, the T/C [8] was 98 % of control and 99 % of control and the T/C [9] was 99 % of control and 110 % of control. For the same molecule, the T/C (dose: 600.0 mg/kg/injection, schedule: Q04DX003 (ip), vehicle: saline with Tween-80) was 92 % of control.
`CCCCN(CCCC)CCOC(=O)c1ccc([N+](=O)[O-])cc1` was tested, and the T/C [10] was 100 % of control, the T/C [11] was 100 % of control and the T/C [12] was 100 % of control.
For `CNNCc1ccc(/C=N/NC(N)=S)cc1`, the T/C (dose: 6.25 mg/kg/injection, schedule: Q01DX009 (ip), vehicle: water) was 106 % of control, the T/C (dose: 12.5 mg/kg/injection, schedule: Q01DX009 (ip), vehicle: water) was 114 % of control and the T/C (dose: 25.0 mg/kg/injection, schedule: Q01DX009 (ip), vehicle: water) was 92 % of control. The T/C (dose: 50.0 mg/kg/injection, schedule: Q01DX009 (ip), vehicle: water) was 92 % of control.
In the case of `N#CC(/C=C/c1ccccc1)Nc1ccccc1` (stereo not given), the T/C [7] is reported as 104 % of control, the T/C [8] is reported as 100 % of control and the T/C [9] is reported as 100 % of control.
In the case of `COc1cc(-c2ccc(Nc3ccccc3C(=O)O)c(OC)c2)ccc1N`, the T/C [13] is reported as 110 % of control, the T/C (dose: 33.0 mg/kg/injection, schedule: Q01DX009 (ip), vehicle: saline with Tween-80) is reported as 109 % of control and the T/C (dose: 75.0 mg/kg/injection, schedule: Q01DX009 (ip), vehicle: saline with Tween-80) is reported as 163 % of control.
In the case of `Cc1cc(C)c(S(=O)(=O)O)cc1C`, the T/C (dose: 50.0 mg/kg/injection, schedule: Q04DX003 (ip), vehicle: saline with Tween-80) is reported as 104 % of control and the T/C [7] is reported as 100 % of control.
With `O=C(NC(Cc1ccccc1)C(=O)CCl)OCc1ccccc1` (stereo not given) the T/C (dose: 4.4 mg/kg/injection, schedule: Q01DX009 (ip), vehicle: saline with Tween-80) was 112 % of control, the T/C (dose: 6.6 mg/kg/injection, schedule: Q01DX009 (ip), vehicle: saline with Tween-80) was 120 % of control and the T/C (dose: 15.0 mg/kg/injection, schedule: Q01DX009 (ip), vehicle: saline with Tween-80) was 112 % of control. For the same molecule, the T/C [13] was 105 % of control and 113 % of control and the T/C (dose: 37.5 mg/kg/injection, schedule: Q01DX009 (ip), vehicle: saline with Tween-80) was 86 % of control.
In the case of `COC(C)c1cnccc1C(C)c1cc2ccccc2[nH]1` (stereo not given), the T/C [3] is reported as 105 % of control and the T/C (dose: 200.0 mg/kg/injection, schedule: Q01DX001 (ip), vehicle: saline with Tween-80) is reported as 108 % of control.
In the case of `NC(N)=NCCCC(NC(=O)OCc1ccccc1)C(=O)O` (stereo not given), the T/C [14] is reported as 100 % of control, the T/C [15] is reported as 104 % of control and the T/C [16] is reported as 100 % of control.
In the case of `NCCNCc1c[nH]c(=O)[nH]c1=O`, the T/C [17] is reported as 113 % of control, the T/C [18] is reported as 111 % of control and the T/C [19] is reported as 101 % of control.
In the case of `COC(=O)C(Br)C(Br)c1ccc(-c2ccccc2)cc1` (stereo not given), the T/C [7] is reported as 92 % of control, the T/C [8] is reported as 89 % of control and the T/C [9] is reported as 104 % of control.
In the case of `O=C(/C=C/c1ccc2c(c1)OCO2)c1ccccc1`, the T/C (dose: 50.0 mg/kg/injection, schedule: Q01DX009 (ip), vehicle: Klucel (hydroxypropylcellulose) (HPC)) is reported as 114 % of control and 105 % of control, the T/C [1] is reported as 112 % of control and 100 % of control and the T/C [14] is reported as 104 % of control. For the same molecule, the T/C [2] was 112 % of control, the T/C [15] was 100 % of control and the T/C [16] was 95 % of control.
For `COC(=O)C(Br)C(OC)c1ccc(Cl)cc1` (stereo not given), the T/C [7] was 109 % of control, the T/C [8] was 109 % of control and the T/C [9] was 118 % of control.
`CCc1nc2nc(C)cc(C)n2n1` was tested, and the T/C (dose: 12.5 mg/kg/injection, schedule: Q01DX009 (ip), vehicle: saline) was 91 % of control, the T/C [4] was 89 % of control and the T/C [5] was 97 % of control and 120 % of control. The T/C [6] was 86 % of control and 91 % of control and the T/C (dose: 200.0 mg/kg/injection, schedule: Q01DX009 (ip), vehicle: saline) was 104 % of control.
`CN(C)c1ccc(C=Nc2ccc(/C=C\c3ccnc4ccccc34)cc2)cc1` was tested, and the T/C [17] was 107 % of control, the T/C [18] was 117 % of control and the T/C [19] was 100 % of control.
`O=C(NC(COC(=O)C(Cc1ccccc1)NC(=O)c1ccccc1)Cc1ccccc1)c1ccccc1` (stereo not given) was tested, and the T/C (dose: 4.0 mg/kg/injection, schedule: Q01DX009 (ip), vehicle: Klucel (hydroxypropylcellulose) (HPC)) was 102 % of control, the T/C (dose: 8.0 mg/kg/injection, schedule: Q01DX009 (ip), vehicle: Klucel (hydroxypropylcellulose) (HPC)) was 104 % of control and the T/C (dose: 16.0 mg/kg/injection, schedule: Q01DX009 (ip), vehicle: Klucel (hydroxypropylcellulose) (HPC)) was 93 % of control. The T/C (dose: 32.0 mg/kg/injection, schedule: Q01DX009 (ip), vehicle: Klucel (hydroxypropylcellulose) (HPC)) was 98 % of control.
With `COc1cc2c(c3oc(=O)ccc13)C(=O)CC(C)(C)O2` the T/C [10] was 108 % of control, the T/C [11] was 100 % of control and the T/C [12] was 104 % of control.
For `O=C1CSCC(=O)C1`, the T/C (dose: 100.0 mg/kg/injection, schedule: Q04DX002 (ip), vehicle: saline with Tween-80) was 94 % of control, the T/C (dose: 200.0 mg/kg/injection, schedule: Q04DX002 (ip), vehicle: saline with Tween-80) was 96 % of control and the T/C (dose: 400.0 mg/kg/injection, schedule: Q04DX002 (ip), vehicle: saline with Tween-80) was 96 % of control.
`Cc1ccn(-c2ccccc2)n1` was tested, and the T/C (dose: 100.0 mg/kg/injection, schedule: Q04DX003 (ip), vehicle: other) was 104 % of control, the T/C (dose: 200.0 mg/kg/injection, schedule: Q04DX003 (ip), vehicle: other) was 113 % of control and the T/C (dose: 400.0 mg/kg/injection, schedule: Q04DX003 (ip), vehicle: other) was 113 % of control.
